Assay results as given in patent US8952177B2 (Janssen Pharmaceutica NV, priority 2013, dated 2015).
pIC50, pKi: −log10 of the molar value. Where a name gives a salt, the structure may show the parent alone.

What was measured:
[1] = tested on: leukotriene pathway in human whole blood (LTB4); test: Human whole blood assay (LTB4 after calcium ionophore A23187 stimulation); assay type: cell-based; conditions: Homo sapiens, human whole blood diluted 1:1 in RPMI, 15 min pre-incubation, A23187 7 μg/mL for 30 min at 37° Celsius
Method in brief: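 Heparinised human whole blood, diluted 1:1 in RPMI, was preincubated with compound for 15 min at 37° C. before stimulation with A23187 (7 μg/mL) for 30 min. Plasma LTB4 was measured by immunoassay kit and IC50 obtained by 4-parameter fit; single replicate per plate, blood from at least one donor.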

human FLAP = human FLAP (Homo sapiens (Human), UniProt P20292); test: FLAP binding assay (HTRF format); conditions: human FLAP-containing Sf-9 membranes, 25 nM HTRF ligand, 2 h; average of runs; read-out: FLAP Binding wild type HTRF Ki
Description: The ability of the compounds of the present invention to treat a FLAP-mediated disease and/or disorder, or associated symptoms or complications thereof, was determined using the following procedures. Binding assay data represent the average value obtained from two different assay plates, with samples run in duplicate on each plate. Human whole blood assay data represent a single replicate on an assay plate using whole blood from at least one healthy donor.
The assay below is used to test the modulatory activity of compounds against FLAP. Human and mouse FLAP-encoding DNA was amplified by polymerase chain reaction and cloned into pFastBacl (Invitrogen) with a NH2-terminal 6-His tag for expression in Spodoptera frugiperda (Sf-9) cells. FLAP-containing membranes were prepared as was a FITC-labeled FLAP modulator (3-(3-(tert-butylthio)-1-(4-chlorobenzyl)-5-(quinolin-2-ylmethoxy)-1H-indol-2-yl)-2,2-dimethylpropanoic acid). The FLAP binding assay is performed in HTRF format (homogeneous time resolved fluorescence). […] The reaction is allowed to proceed for two hours after which the plate is read on an Envision plate reader in HTRF mode. Data are expressed as a HTRF ratio.
For human FLAP binding assays, data are analyzed with 3DX Explorer software. […] For analysis, data from multiple runs are averaged and each compound may be tested in 2 to 20 runs. Each run comprises two plates and each plate includes duplicates. Data from each plate is averaged and data are imported into 3DX. The data from multiple runs are aggregated as the average of duplicates of the calculated ratios in order to calculate Ki and IC50 values. Numbers in parentheses are the number of runs for the assay.

Chain of human FLAP (P20292 whole entry): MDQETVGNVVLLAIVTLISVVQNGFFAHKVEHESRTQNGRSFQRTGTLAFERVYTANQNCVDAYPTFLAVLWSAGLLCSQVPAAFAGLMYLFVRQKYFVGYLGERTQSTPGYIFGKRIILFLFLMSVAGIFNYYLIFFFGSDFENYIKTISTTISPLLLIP

SMILES	pIC50 [1]	pKi (human FLAP)
Cc1ccc(COc2ccc3nc(C4CCCC[C@@H]4C(=O)O)n(Cc4ccc(C#N)cc4)c3c2)nc1 (mixture of isomers) [Example 18, racemic trans-2-{1-(4-Cyanobenzyl)-6-[(5-methylpyridin-2-yl)methoxy]-1H-benzimidazol-2-yl}cyclohexanecarboxylic acid as the TFA salt]	< 5.00	7.28
Cc1ccc(COc2ccc3nc(C4CCCC[C@H]4C(=O)O)n(Cc4ccc(C#N)cc4)c3c2)nc1 (mixture of isomers) [Example 37, racemic cis-2-{1-(4-Cyanobenzyl)-6-[(5-methylpyridin-2-yl)methoxy]-1H-benzimidazol-2-yl}cyclohexanecarboxylic acid as the TFA salt]	6.17	7.59
Cn1ccc(COc2ccc3nc([C@@H]4CCCC[C@@H]4C(=O)O)n(Cc4ccc(C#N)cc4)c3c2)n1 (racemic) [Example 47, racemic cis-2-{1-(4-Cyanobenzyl)-6-[(1-methyl-1H-pyrazol-3-yl)methoxy]-1H-benzimidazol-2-yl}cyclohexanecarboxylic acid as the TFA salt]		~6.31
Cn1ccc(COc2ccc3nc(C4CCCC[C@@H]4C(=O)O)n(Cc4ccc(C#N)cc4)c3c2)n1 (mixture of isomers) [Example 48, racemic trans-2-{1-(4-Cyanobenzyl)-6-[(1-methyl-1H-pyrazol-3-yl)methoxy]-1H-benzimidazol-2-yl}cyclohexanecarboxylic acid as the TFA salt]		~6.12
Cc1ccc(Cn2c(C3[C@@H](C(=O)O)C3(C)C)nc3c(F)cc(OCc4ccc(C)cn4)cc32)cc1 (mixture of isomers) [Example 64, racemic cis-3-{4-Fluoro-1-(4-methylbenzyl)-6-[(5-methylpyridin-2-yl)methoxy]-1H-benzimidazol-2-yl}-2,2-dimethylcyclopropanecarboxylic acid as the TFA salt]	5.48	6.54
Cc1ccc(COc2ccc3nc([C@H]4CCCC[C@H]4C(=O)O)n(Cc4ccc(-c5ncc(Cl)cn5)cc4)c3c2)nc1 (racemic) [Example 80, racemic cis-2-{1-[4-(5-Chloropyrimidin-2-yl)benzyl]-6-[(5-methylpyridin-2-yl)methoxy]-1H-benzimidazol-2-yl}cyclohexanecarboxylic acid]	6.52	8.48
Cn1cc(Cl)c(COc2ccc3nc([C@@H]4CCCC[C@@H]4C(=O)O)n(Cc4ccc(N5CCCCC5)cc4)c3c2)n1 (racemic) [Example 82, racemic cis-2-{6-[(4-Chloro-1-methyl-1H-pyrazol-3-yl)methoxy]-1-(4-piperidin-1-ylbenzyl)-1H-benzimidazol-2-yl}cyclohexanecarboxylic acid]	6.77	8.10
Cn1cc(Cl)c(COc2ccc3nc([C@@H]4CCCC[C@@H]4C(=O)O)n(Cc4ccc(OC(F)(F)F)cc4F)c3c2)n1 (racemic) [Example 83, racemic cis-2-{6-[(4-Chloro-1-methyl-1H-pyrazol-3-yl)methoxy]-1-[2-fluoro-4-(trifluoromethoxy)benzyl]-1H-benzimidazol-2-yl}cyclohexanecarboxylic acid]	6.46	8.38
COc1cc(OC(F)(F)F)ccc1Cn1c([C@H]2CCCC[C@H]2C(=O)O)nc2ccc(OCc3ccn(C)n3)cc21 (racemic) [Example 84, racemic cis-2-{1-[2-Methoxy-4-(trifluoromethoxy)benzyl]-6-[(1-methyl-1H-pyrazol-3-yl)methoxy]-1H-benzimidazol-2-yl}cyclohexanecarboxylic acid]	6.72	8.23
Cn1cc(F)c(COc2ccc3nc([C@@H]4CCCC[C@@H]4C(=O)O)n(Cc4ccc(OC(F)(F)F)cc4F)c3c2)n1 (racemic) [Example 85, racemic cis-2-{6-[(4-Fluoro-1-methyl-1H-pyrazol-3-yl)methoxy]-1-[2-fluoro-4-(trifluoromethoxy)benzyl]-1H-benzimidazol-2-yl}cyclohexanecarboxylic acid]	6.17	8.85
Cn1cc(Cl)c(COc2ccc3nc([C@@H]4CCCC[C@@H]4C(=O)O)n(Cc4ccc(N5CCC(F)CC5)cc4)c3c2)n1 (racemic) [Example 87, racemic cis-2-{6-[(4-Chloro-1-methyl-1H-pyrazol-3-yl)methoxy]-1-[4-(4-fluoropiperidin-1-yl)benzyl]-1H-benzimidazol-2-yl}cyclohexanecarboxylic acid]	5.75	7.82
Cn1ccc(COc2ccc3nc([C@@H]4CCCC[C@@H]4C(=O)O)n(Cc4ccc(N5CC(F)(F)C5)cc4)c3c2)n1 (racemic) [Example 89, racemic cis-2-{1-[4-(3,3-Difluoroazetidin-1-yl)benzyl]-6-[(1-methyl-1H-pyrazol-3-yl)methoxy]-1H-benzimidazol-2-yl}cyclohexanecarboxylic acid]	5.44	7.49
Cc1ccc(COc2cc3c(cc2Cl)nc([C@H]2CCCC[C@H]2C(=O)O)n3Cc2ccc(OC(F)(F)F)cc2F)nc1 (racemic) [Example 110, racemic cis-2-{5-Chloro-1-[2-fluoro-4-(trifluoromethoxy)benzyl]-6-[(5-methylpyridin-2-yl)methoxy]-1H-benzimidazol-2-yl}cyclohexanecarboxylic acid as the HCl salt]		6.04
Cn1ccc(COc2ccc3nc([C@@H]4[C@@H](C(=O)O)C4(C)C)n(Cc4ccc(Br)cc4)c3c2)n1 (racemic) [Example 117, racemic trans-3-{1-(4-Bromobenzyl)-6-[(1-methyl-1H-pyrazol-3-yl)methoxy]-1H-benzimidazol-2-yl}-2,2-dimethylcyclopropanecarboxylic acid as the TFA salt]		~5.73
Cc1cccc(COc2ccc3nc([C@@H]4[C@H](C(=O)O)C4(C)C)n(Cc4ccc(Br)cc4)c3c2)n1 (racemic) [Example 133, racemic cis-3-{1-(4-Bromobenzyl)-6-[(6-methylpyridin-2-yl)methoxy]-1H-benzimidazol-2-yl}-2,2-dimethylcyclopropanecarboxylic acid]		~5.82
Cc1ccc(COc2ccc3nc([C@@H]4CCCC[C@@H]4C(=O)O)n(Cc4ccc(C#N)cc4)c3c2)nc1 (stereo in doubt) [Example 38, (1S*,2R*)-2-{1-(4-Cyanobenzyl)-6-[(5-methylpyridin-2-yl)methoxy]-1H-benzimidazol-2-yl}cyclohexanecarboxylic acid]		< 5.00
CCC(CC)(Cc1nc2ccc(OCc3ccc(C)cn3)cc2n1Cc1ccc(C#N)cc1)C(=O)O [Example 19, 2-({1-(4-Cyanobenzyl)-6-[(5-methylpyridin-2-yl)methoxy]-1H-benzimidazol-2-yl}methyl)-2-ethylbutanoic acid as the TFA salt]		~6.12
CCC(CC)(Cc1nc2ccc(OCc3ccn(C)n3)cc2n1Cc1ccc(N2CCCCC2)cc1)C(=O)O [Example 43, 2-Ethyl-2-({6-[(1-methyl-1H-pyrazol-3-yl)methoxy]-1-(4-piperidin-1-ylbenzyl)-1H-benzimidazol-2-yl}methyl)butanoic acid]		~6.03
CCC(CC)(Cc1nc2ccc(OCc3ccn(C)n3)cc2n1Cc1ccc(OC(F)(F)F)cc1)C(=O)O [Example 50, 2-Ethyl-2-({6-[(1-methyl-1H-pyrazol-3-yl)methoxy]-1-[4-(trifluoromethoxy)benzyl]-1H-benzimidazol-2-yl}methyl)butanoic acid]		~7.00
Cn1ccc(COc2ccc3nc(CC(C)(C)C(=O)O)n(Cc4ccc(Br)cc4)c3c2)n1 [Example 107, 3-{1-(4-Bromobenzyl)-6-[(1-methyl-1H-pyrazol-3-yl)methoxy]-1H-benzimidazol-2-yl}-2,2-dimethylpropanoic acid]		6.37
Cc1cccc(COc2ccc3nc(CC(C)(C)C(=O)O)n(Cc4ccc(Br)cc4)c3c2)n1 [Example 108, 3-{1-(4-Bromobenzyl)-6-[(6-methylpyridin-2-yl)methoxy]-1H-benzimidazol-2-yl}-2,2-dimethylpropanoic acid]		5.65
Cc1cnc(COc2ccc3nc(CC(C)(C)C(=O)O)n(Cc4ccc(N5CCC(C)CC5)cc4)c3c2)c(F)c1 [Example 185, 3-{6-[(3-Fluoro-5-methylpyridin-2-yl)methoxy]-1-[4-(4-methylpiperidin-1-yl)benzyl]-1H-benzimidazol-2-yl}-2,2-dimethylpropanoic acid]	6.04	
CCC(CC)(Cc1nc2ccc(OCc3ccn(C)n3)cc2n1Cc1ccc(N2CCC(C(F)(F)F)CC2)cc1F)C(=O)O [Example 189, 2-ethyl-2-((1-(2-fluoro-4-(4-(trifluoromethyl)piperidin-1-yl)benzyl)-6-((1-methyl-1H-pyrazol-3-yl)methoxy)-1H-benzo[d]imidazol-2-yl)methyl)butanoic acid]	5.83	
